# Measurements as given in US12110288B2, “MASP-2 inhibitors and methods of use” (Omeros Corporation, priority 2019, dated 2024).
# Counter-ions that a name gives are not always drawn.
# Target: T1, MASP-2 (CCP1-CCP2-SP) (Homo sapiens, UniProt O00187)
# T1 construct: 15 μL of Enzyme MASP-2 (CCP1-CCP2-SP) in Assay Buffer
# Test: Enzymatic Assay for MASP-2
# Format: biochemical
# Conditions: fluorogenic substrate based on C2 cleavage site, room temperature, 20 mM HEPES pH 7.4
# Experimental: Enzymatic Assay for MASP-2
# The MASP-2 assay utilizes a fluorogenic substrate, based on the cleavage site for its natural substrate C2. The assay is run at room temperature in an assay buffer containing 20 mM HEPES, pH 7.4, 140 mM NaCl and 0.1% Tween 20. Assay parameters are adjusted such that the assay is linear with respect to time, enzyme, and substrate concentrations. Under these optimized assays conditions, IC50 values are equivalent to Ki values, except in a few cases of “tight binding” inhibitors. Cases of “tight binding” or possible “slow binding” inhibitors are handled by the methods described in Copeland R. A. (2013) Evaluation of Enzyme Inhibitors in Drug Discovery. 2nd Ed., John Wiley and Sons, Inc., Chapters 5-7.
# The MASP-2 assay protocol is carried out as follows. Test compounds are serially diluted in DMSO and then 100 nL of each dilution is transferred to the assay plate(s). 10 μL of Assay Buffer is added, followed by 15 μL of Enzyme MASP-2 (CCP1-CCP2-SP) in Assay Buffer. 15 μL of Substrate in Assay Buffer is then added and mixed to start the reactions. After 20 min at room temperature, 15 μL of a stop solution (0.1 M acetic acid) is added, mixed and the plates are read on a SpectraMax i3x Microplate Reader and exported as Excel files. Each assay plate included a “no inhibitor” (DMSO Only) control, a “no enzyme” control and a reference inhibitor control. % Activity values=100*(average test comp. fluorescence−average “no enzyme” fluorescence)/(average “DMSO only” fluorescence−average “no enzyme” fluorescence). IC50 and Ki values are very reproducible, falling well within ±2-fold.
# T1 sequence (O00187 445-686 limits assumed): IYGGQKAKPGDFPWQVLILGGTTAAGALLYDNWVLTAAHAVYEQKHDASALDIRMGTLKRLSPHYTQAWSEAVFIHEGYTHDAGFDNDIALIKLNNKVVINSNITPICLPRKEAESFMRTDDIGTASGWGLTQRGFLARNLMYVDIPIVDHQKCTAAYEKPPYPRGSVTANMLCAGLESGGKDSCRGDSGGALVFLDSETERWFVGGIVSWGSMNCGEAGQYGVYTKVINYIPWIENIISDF
# T1 sequence (O00187 298-444 partner limits assumed): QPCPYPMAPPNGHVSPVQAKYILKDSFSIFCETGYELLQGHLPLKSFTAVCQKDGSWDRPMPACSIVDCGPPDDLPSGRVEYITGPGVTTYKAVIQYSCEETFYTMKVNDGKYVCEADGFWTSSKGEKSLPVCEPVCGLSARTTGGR
row,SMILES,Ki
1,"NCc1cccc(-c2cnc(NCCc3ccccc3)c(=O)n2CC(=O)NCc2cc3cnccc3[nH]2)c1 [Compound 96, N-((1H-Pyrrolo[3,2-c]Pyridin-2-yl)Methyl)-2-(6-(3-(Aminomethyl)Phenyl)-2-Oxo-3-(Phenethylamino)Pyrazin-1(2H)-yl)Acetamide]",< 500 nM
2,"Cc1nc(N)ccc1CNC(=O)Cn1c(-c2ccccc2)c(Cl)nc(N2CCCC2)c1=O [Compound 40, N-((6-Amino-2-methylpyridin-3-yl)methyl)-2-(5-chloro-2-oxo-6-phenyl-3-(pyrrolidin-1-yl)pyrazin-1(2H)-yl)acetamide]",< 500 nM
3,"O=C(Cn1c(-c2cccc(C3(O)COC3)c2)cnc(NCCc2ccccc2)c1=O)NCc1cc2cnccc2[nH]1 [Compound 99, N-((1H-Pyrrolo[3,2-c]pyridin-2-yl)methyl)-2-(6-(3-(3-hydroxyoxetan-3-yl)phenyl)-2-oxo-3-(phenethylamino)pyrazin-1(2H)-yl)acetamide]",< 500 nM
4,"O=C(Cn1c(-c2ccccc2)cnc(NCCc2ccccc2)c1=O)NCc1cc2cnccc2[nH]1 [Compound 20, N-((1H-Pyrrolo[3,2-c]pyridin-2-yl)methyl)-2-(2-oxo-3-(phenethylamino)-6-phenylpyrazin-1(2H)-yl)acetamide trifluoroacetate]",< 500 nM
5,"N#Cc1cccc(-c2cnc(NCCc3ccccc3)c(=O)n2CC(=O)NCc2ccc3nc(N)[nH]c3c2)c1 [Compound 14, N-((2-Amino-1H-benzo[d]imidazol-6-yl)methyl)-2-(6-(3-cyanopheny1)-2-oxo-3-(phenethylamino)pyrazin-1(2H)-yl)acetamide]",< 500 nM
6,"Cn1cc(-c2cnc(NCC(F)(F)c3ccccc3)c(=O)n2CC(=O)NCc2cc3cnccc3[nH]2)cn1 [Compound 123, N-((1H-Pyrrolo[3,2-c]Pyridin-2-yl)Methyl)-2-(3-((2,2-Difluoro-2-Phenylethyl)Amino)-6-(1-Methyl-1H-Pyrazol-4-yl)-2-Oxopyrazin-1(2H)-yl)Acetamide Trifluoroacetate]",< 500 nM
7,"O=C(Cn1c(-c2ccccc2)cnc(NCc2ccc(F)cc2)c1=O)NCc1cc2cnccc2[nH]1 [Compound 147, N-((1H-Pyrrolo[3,2-c]Pyridin-2-yl)Methyl)-2-(3-((4-Fluorobenzyl)Amino)-2-Oxo-6-Phenylpyrazin-1(2H)-yl)Acetamide]",< 500 nM
8,"O=C(Cn1c(-c2ccccc2)cnc(NCC2(c3cccc(Cl)c3)CC2)c1=O)NCc1cc2cnccc2[nH]1 [Compound 71, N-((1H-Pyrrolo[3,2-c]pyridin-2-yl)methyl)-2-(3-(((1-(3-chlorophenyl)cyclopropyl)methyl)amino)-2-oxo-6-phenylpyrazin-1(2H)-yl)acetamide trifluoroacetate]",< 500 nM
9,"Cc1nc(N)ccc1CNC(=O)Cn1c(-c2cccc(C(N)=O)c2)cnc(NCCc2ccccc2)c1=O [Compound 30, 3-(1-(2-(((6-Amino-2-methylpyridin-3-yl)methyl)amino)-2-oxoethyl)-6-oxo-5-(phenethylamino)-1,6-dihydropyrazin-2-yl)benzamide hydrochloride]",< 500 nM
10,"Cc1nc(N)ccc1CNC(=O)Cn1c(C)ncc(NS(=O)(=O)Cc2ccccc2)c1=O [Compound 1, N-((6-Amino-2-Methylpyridin-3-yl)Methyl)-2-(2-Methyl-6-Oxo-5-((Phenylmethyl)Sulfonamido)Pyrimidin-1(6H)-yl)Acetamide, Trifluoro Acetate]",> 10000 nM
11,"O=C(Cn1c(-c2ccc(Cl)s2)cnc(NCCc2ccccc2)c1=O)NCc1cc2cnccc2[nH]1 [Compound 89, N-((1H-Pyrrolo[3,2-c]Pyridin-2-yl)Methyl)-2-(6-(5-Chlorothiophen-2-yl)-2-Oxo-3-(Phenethylamino)Pyrazin-1(2H)-yl)Acetamide]",< 500 nM
12,"Cc1nc(N)ccc1CNC(=O)Cn1c(-c2ccc(N)cc2)cnc(NCCc2ccccc2)c1=O [Compound 31, N-((6-Amino-2-Methylpyridin-3-yl)Methyl)-2-(6-(4-Aminophenyl)-2-Oxo-3-(Phenyethylamino)Pyrazin-1-(2H)-yl)Acetamide]",< 500 nM
13,"CC(C)(C)OC(=O)N1CCC2(CC1)CCN(c1ncc(-c3ccccc3)n(CC(=O)NCc3cc4cnccc4[nH]3)c1=O)C2 [Compound 53, Tert-Butyl 2-(4-(2-(((1H-Pyrrolo[3,2-c]Pyridin-2-yl)Methyl)Amino)-2-Oxoethyl)-3-Oxo-5-Phenyl-3,4-Dihydropyrazin-2-yl)-2,8-Diazaspiro[4.5]Decane-8-Carboxylate]",< 500 nM
14,"COc1cccc(CNc2ncc(-c3ccccc3)n(CC(=O)NCc3cc4cnccc4[nH]3)c2=O)c1 [Compound 153, N-((1H-Pyrrolo[3,2-c]pyridin-2-yl)methyl)-2-(3-((3-methoxybenzyl)amino)-2-oxo-6-phenylpyrazin-1(2H)-yl)acetamide]",< 500 nM
15,"O=C(Cn1c(-c2ccccc2)cnc(NCc2ccccc2)c1=O)NCc1cc2cnccc2[nH]1 [Compound 58, N-((1H-Pyrrolo[3,2-c]Pyridin-2-yl)Methyl)-2-(3-(Benzylamino)-2-Oxo-6-Phenylpyrazin-1(2H)-yl)Acetamide Trifluoroacetate]",< 500 nM
16,Cn1cc(-c2cnc(NCCc3ccccc3)c(=O)n2CC(=O)NCc2cnc3scc(Cl)c3c2)cn1 [Compound 82],2500 to 10000 nM
17,Cc1nc(N)ccc1CNC(=O)Cn1c(-c2ccc(CO)cc2)cnc(NCCc2ccccc2)c1=O [Compound 33],< 500 nM
18,"Cc1nc(N)ccc1CNC(=O)Cn1c(-c2cncnc2)cnc(NCCc2ccccc2)c1=O [Compound 23, N-((6-Amino-2-methylpyridin-3-yl)methyl)-2-(2-oxo-3-(phenethylamino)-6-(pyrimidin-5-yl)pyrazin-1(2H)-yl)acetamide]",< 500 nM
19,"Cc1cccc(CCNc2ncc(-c3ccccc3)n(CC(=O)NCc3cc4cnccc4[nH]3)c2=O)c1 [Compound 137, N-((1H-Pyrrolo[3,2-c]pyridin-2-yl)methyl)-2-(3-((3-methylphenethyl)amino)-2-oxo-6-phenylpyrazin-1(2H)-yl)acetamide]",< 500 nM
20,"Nc1nc2cc(CNC(=O)Cn3c(-c4ccccc4)cnc(NCCc4ccccc4)c3=O)ccc2[nH]1 [Compound 9, N-((2-Amino-1H-Benzo[d]Imidazol-5-yl)Methyl)-2-(2-Oxo-3-(Phenethylamino)-6-Phenylpyrazin-1(2H)-yl)Acetamide]",< 500 nM
21,CC(C)Nc1cnc(N(CCc2ccccc2)CCc2ccccc2)c(=O)n1CC(=O)NCc1cc2cnccc2[nH]1 [Compound 159],> 10000 nM
22,"Cn1nccc1-c1cnc(NCCc2ccccc2)c(=O)n1CC(=O)NCc1cc2cnccc2[nH]1 [Compound 105, N-((1H-Pyrrolo[3,2-c]pyridin-2-yl)methyl)-2-(6-(1-methyl-1H-pyrazol-5-yl)-2-oxo-3-(phenethylamino)pyrazin-1(2H)-yl)acetamide]",< 500 nM
23,"CC(C)Nc1ncc(-c2ccccc2)n(CC(=O)NCc2cc3cnccc3[nH]2)c1=O [Compound 134, N-((1H-Pyrrolo[3,2-c]Pyridin-2-yl)Methyl)-2-(3-(Isopropylamino)-2-Oxo-6-Phenylpyrazin-1(2H)-yl)Acetamide]",< 500 nM
24,"COc1ccc(CNc2ncc(-c3ccccc3)n(CC(=O)NCc3cc4cnc(C)cc4[nH]3)c2=O)cc1 [Compound 77, 2-(3-((4-Methoxybenzyl)amino)-2-oxo-6-phenylpyrazin-1(2H)-yl)-N-((6-methyl-1H-pyrrolo[3,2-c]pyridin-2-yl)methyl)acetamide trifluoroacetate]",< 500 nM
25,"Cc1nc(N)ccc1CNC(=O)Cn1c(-c2ccc[nH]2)cnc(NCCc2ccccc2)c1=O [Compound 22, N-((6-Amino-2-methylpyridin-3-yl)methyl)-2-(2-oxo-3-(phenethylamino)-6-(1H-pyrrol-2-yl)pyrazin-1(2H)-yl)acetamide]",< 500 nM
26,"Cc1nn(C2CC2)cc1-c1cnc(NCCc2ccccc2)c(=O)n1CC(=O)NCc1cc2cnccc2[nH]1 [Compound 114, N-((1H-Pyrrolo[3,2-c]pyridin-2-yl)methyl)-2-(6-(1-cyclopropyl-3-methyl-1H-pyrazol-4-yl)-2-oxo-3-(phenethylamino)pyrazin-1(2H)-yl)acetamide]",< 500 nM
27,"Cc1nc(N)ccc1CNC(=O)Cn1c(-c2cccc(CO)c2)cnc(NCCc2ccccc2)c1=O [Compound 32, N-((6-Amino-2-Methylpyridin-3-yl)Methyl)-2-(6-(3-(Hydroxymethyl)Phenyl)-2-Oxo-3-(Phenethyl Amino)Pyrazin-1(2H)-yl)Acetamide]",< 500 nM
28,"Cc1nc(N)ccc1CNC(=O)Cn1c(-c2cnn(C)c2)cnc(NCCc2ccccc2)c1=O [Compound 25, N-((6-Amino-2-methylpyridin-3-yl)methyl)-2-(6-(1-methyl-1H-pyrazol-4-yl)-2-oxo-3-(phenethylamino)pyrazin-1(2H)-yl)acetamide]",< 500 nM
29,"Cn1cc(-c2cnc(NCCc3ccccc3)c(=O)n2CC(=O)NCc2ccc3c(c2)CCNC3)cn1 [Compound 80, 2-(6-(1-Methyl-1H-Pyrazol-4-yl)-2-Oxo-3-(Phenethylamino)Pyrazin-1(2H)-yl)-N-((1,2,3,4-Tetrahydroisoquinolin-6-yl)Methyl)Acetamide]",2500 to 10000 nM
